{"source": "patent US20170196987A1", "about": "“METHODS FOR TREATING MULTIPLE SCLEROSIS” (MedWell Laboratories Ltd., priority 2014, published 2017)", "key": {"[1]": {"tested_on": "Experimental Autoimmune Encephalomyelitis (EAE) mice", "assay": "Efficacy of oral and ip MWL-001, MP and their combination in EAE (model of brain inflammation, MS), Example 2", "assay_type": "in vivo, female C57Bl mice", "conditions": "for Inhibition of the clinical signs of the disease: day 0 to day 15", "description": "Induction of EAE: Disease was induced in female C57Bl mice (6-8 weeks old; Harlan). Myelin Oligodendrocyte Glycoprotein (MOG 35-55) (Hadassah ein karem) was dissolved in saline (3 mg/ml) and emulsified (1:1) with Complete Freund's Adjuvant (CFA) (gibco; containing 5 mg of killed MT). 200 microliter of emulsion (containing […] of MOG) was injected into the right flank, and each mouse received a supplement of 250 ng of pertussis toxin (List) i.p. Another 250 ng of pertussis toxin (PT) were injected 24 hours later. Mice were observed daily from the 9th day post-EAE and the clinical signs were scored as described in Table III below.\nMWL-001 was dissolved in ethanol (60 mg/ml), wherein in one group MWL-001 was administered ip and in a second group MWL-001 was administered orally by gavage at a dose of 50 mg/kg (10% stock in saline). The MWL-001 was administered once a day (from day 0) at 9 am. Treatment ended on day 15 post inoculation. Each dose was administered in a volume of 0.2 ml/mouse\nA third group of animals was treated ip with a dose of 25 mg/kg starting on day 7 and ending on day 15\nThe number of animals in each of the above five groups was between 9 and 11.\nCalculation of the incidence of disease: The number of sick animals in each group was summed and percentage of sick animals in each group calculated.\nCalculation of the mean maximal score (MMS): The maximal scores of each of the 10 mice in the group were summed and the mean maximal score of each group was calculated as follows:Σ maximal score of each mouse / number of mice in the group.\nCalculation of the group mean score (GMS): The scores of each of the 10 mice in the group was summed and the mean score per day calculated. The group mean score was calculated as follows: Σ total score of each mouse per day/number of mice in the group."}, "[2]": {"tested_on": "Experimental Autoimmune Encephalomyelitis (EAE) mice", "assay": "Efficacy of conjugate MW001 in MOG 35-55 induced EAE (model of multiple sclerosis), Example 1", "assay_type": "in vivo, female C57B1 mice", "description": "Disease was induced in female C57B1 mice (6-8 weeks old; Harlan). Myelin Oligodendrocyte Glycoprotein (MOG) 35-55 was dissolved in saline (3 mg/ml) and emulsified (1:1) with Complete Freund's Adjuvant (CFA) (gibco; containing 5 mg of killed mycobacterium tuberculosis (MT). 200 μl of the emulsion (containing […] of MOG) were injected into the right flank of each mouse, wherein and each mouse received a 250 ng supplement of pertussis toxin (PT, List) by intraperitoneal injection. Another 250 ng of PT were injected into the right flank of each mouse 24 hours later. The mice were observed daily from the 9th day post-EAE and the clinical signs were scored as described in Table 1 below:\nThe MW-001 conjugate was dissolved in ethanol (60 mg/ml) and administered by intraperitoneal injection, at a dose of 50 mg/kg (10% stock in saline) twice a day, once at 9 am and once at […]. Each dose was administered in a volume of 0.2ml/mouse (˜20 g). One group of animals was treated starting at day 0 (relating to the first day on which the induction of the disease started) and the other starting at day 10, when clinical signs first appeared. […]\nCalculation of the incidence of disease: The number of sick animals in each group was summed and percentage of sick animals in each group was calculated.\nCalculation of the mean maximal score (MMS): The maximal scores of each of the 10 mice in the group was summed and the mean maximal score of each group was calculated as follows:Σmaximal score of each mouse/number of mice in the group.\nCalculation of the group mean score (GMS):The scores of each of the 10 mice in the group was summed and the mean score per day calculated. The group mean score was calculated as follows: Σtotal score of each mouse per day/number of mice in the group.\nMean maximal score (MMS): defined as the disease severity; scored on a scale of 0-5 with graduations of 0.5 for intermediate clinical signs. The score is described in table-1"}, "[3]": {"tested_on": "spinal cord of EAE animal", "assay": "Histopathology of H&E stained spinal cord sections of EAE animals", "assay_type": "in vivo, mice", "from_the_text": "FIG. 5 (A, B and C) is a histopathological photograph of a spinal cord section stained with H&E of control untreated EAE animal. P=parenchymal infiltrates, M=meningeal infiltrates and D=diffused infiltrates.\nFIG. 6 (A and B) is a histopathological photograph of a spinal cord section stained with H&E of EAE animal treated with MWL-001 (i.p.) on day 0.\nFIG. 7 (A and B) is a histopathological photograph of a spinal cord section stained with H&E of EAE animal treated with MWL-001 (i.p.) on day 10.\nHistopathological photographs are presented as FIGS. 5, 6 and 7)."}, "[4]": {"conditions": "MW-001 50 mg/kg ip twice a day, treatment started on day 0, monitored day 0 to day 20"}, "[5]": {"conditions": "MW-001 50 mg/kg ip twice a day, treatment started on day 10, monitored day 0 to day 20"}, "[6]": {"conditions": "MWL-001 i.p. treatment started at day 10, FIG. 7 A and B"}}}
{"molecule": "CC/C=C/C/C=C/C/C=C/C/C=C/C/C=C/C/C=C/CCC(=O)N1CC(O)CC1C(=O)O", "note": "(stereo not shown) [MW-001]", "values": [{"measurement": "Severity of disease (clinical score)", "setting": "[1]; 25 mg/kg ip, day 7 to day 15, 5 in the control group, FIG. 3", "value": 3}, {"measurement": "Inhibition of appearance of clinical signs", "setting": "[1]; 25 mg/kg ip, day 7 to day 15, FIG. 3", "value": "did not inhibit their appearance on day 10-11 post inoculation"}, {"measurement": "Inhibition of the clinical signs of the disease", "setting": "[1]; 50 mg/kg once a day ip, FIG. 2", "value": "effective in inhibiting the clinical signs of the disease"}, {"measurement": "Inhibition of the clinical signs of the disease", "setting": "[1]; 50 mg/kg once a day orally by gavage, FIG. 2", "value": "effective in inhibiting the clinical signs of the disease"}, {"measurement": "Clinical signs after cessation of the drug", "setting": "[1]; 50 mg/kg once a day orally or ip, a few days after treatment ended on day 15, FIG. 2", "value": "mild signs of the disease appeared for a short period of time"}, {"measurement": "Effectiveness in preventing and ameliorating EAE (overall, vs untreated group)", "setting": "[2]; 50 mg/kg ip twice a day, started on day 0 or day 10", "value": "highly effective in preventing and ameliorating EAE in mice"}, {"measurement": "Disease incidence (sick mice/total)", "setting": "[2]; [4]", "value": "**1/10"}, {"measurement": "Mean day of onset", "setting": "[2]; [4]", "value": 15}, {"measurement": "Mean disease duration", "setting": "[2]; [4]", "value": "0.6 ± 0.19", "unit": "days"}, {"measurement": "Mean maximal score", "setting": "[2]; [4]", "value": "0.075 ± 0.02"}, {"measurement": "Mean score (whole group)", "setting": "[2]; [4]", "value": "0.2 ± 0.06"}, {"measurement": "Incidence (#dead, including sacrificed)", "setting": "[2]; [5]", "value": "11/11"}, {"measurement": "Mean day of onset", "setting": "[2]; [5]", "value": "11 ± 0.09"}, {"measurement": "Mean disease duration", "setting": "[2]; [5]", "value": "8.90 ± 0.2", "unit": "days"}, {"measurement": "Mean maximal score", "setting": "[2]; [5]", "value": "2.72 ± 0.14"}, {"measurement": "Mean score (whole group)", "setting": "[2]; [5]", "value": "1.34 ± 0.08"}, {"measurement": "Mononuclear cell infiltrates in the spinal cord (meningeal)", "setting": "[3]; MWL-001 i.p. on Day 0, compared to untreated, FIG. 6 A and B", "value": "very few meningeal infiltrates"}, {"measurement": "Mononuclear cell infiltrates in the spinal cord (meningeal)", "setting": "[3]; [6]", "value": "very few meningeal infiltrates"}, {"measurement": "Parenchymal or diffused infiltrates in the spinal cord", "setting": "[3]; [6]", "value": "no parenchymal or diffused infiltrates"}]}
